Measured values published in patent US9120804B2, “8-substituted 2-amino-[1,2,4] triazolo [1, 5-A] pyrazines as Syk tryrosine kinase inhibitors and GCN2 serin kinase inhibitors” (Merck Patent GmbH, priority 2012, dated 2015).

target: T1, SYK (Homo sapiens, UniProt P43405); test: SYK flash plate assay (enzyme assay); format: biochemical
T1 construct: 2.5 nM SYK, 400 nM Biotin-Aha-Aha-KEDPDYEWPSAKK
Method in brief: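 Radiometric Flashplate format: biotinylated peptide substrate (400 nM) and 33P-labelled ATP (10 μM) react with 2.5 nM enzyme for 1 hour at 30 °C in Hepes buffer, pH 7.5. After EDTA quench and washing, counts are taken; staurosporine defines non-specific signal, and IC50 values are derived.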

SMILES | IC50
CC1(C)C(=O)Nc2cc(Nc3nc4c(NS(C)(=O)=O)nccn4n3)ccc21 [E104, N-[2-(3,3-dimethyl-2-oxo-2,3-dihydro-1H-indol-6-ylamino)-[1,2,4]triazolo[1,5-a]pyrazin-8-yl]-methanesulfonamide] | 3000 to 50000 nM
CC1(C)C(=O)Nc2cc(Nc3nc4c(N5CC[C@]6(CCNC6)C5)nccn4n3)ccc21 [E105, 6-[(S)-8-(2,7-diaza-spiro[4.4]non-2-yl)-[1,2,4]triazolo[1,5-a]pyrazin-2-ylamino]-3,3-dimethyl-1,3-dihydro-indol-2-one] | < 100 nM
CC1(C)C(=O)Nc2cc(Nc3nc4c(N5CC[C@@]6(CCNC6)C5)nccn4n3)ccc21 [E106, 6-[(R)-8-(2,7-diaza-spiro[4.4]non-2-yl)-[1,2,4]triazolo[1,5-a]pyrazin-2-ylamino]-3,3-dimethyl-1,3-dihydro-indol-2-one] | < 100 nM
CC1(C)C(=O)Nc2cc(Nc3nc4c(N5CCCc6ccccc65)nccn4n3)ccc21 [E108, 6-[8-(3,4-dihydro-2H-quinolin-1-yl)-[1,2,4]triazolo[1,5-a]pyrazin-2-ylamino]-3,3-dimethyl-1,3-dihydro-indol-2-one] | 300 to 3000 nM
CC1(C)C(=O)Nc2cc(Nc3nc4c(NCCN)nccn4n3)ccc21 [E110, 6-[8-(2-amino-ethylamino)-[1,2,4]triazolo[1,5-a]pyrazin-2-ylamino]-3,3-dimethyl-1,3-dihydro-indol-2-one] | 300 to 3000 nM
CC1(C)C(=O)Nc2cc(Nc3nc4c(NS(=O)(=O)c5ccccc5)nccn4n3)ccc21 [E111, N-[2-(3,3-dimethyl-2-oxo-2,3-dihydro-1H-indol-6-ylamino)-[1,2,4]triazolo[1,5-a]pyrazin-8-yl]-benzenesulfonamide] | 300 to 3000 nM
CC1(C)C(=O)Nc2cc(Nc3nc4c(N5CCC6(CNC(=O)O6)C5)nccn4n3)ccc21 (stereo not shown) [E112, 3,3-dimethyl-6-[8-(2-oxo-1-oxa-3,7-diaza-spiro[4.4]non-7-yl)-[1,2,4]triazolo[1,5-a]pyrazin-2-ylamino]-1,3-dihydro-indol-2-one] | < 100 nM
CC1(C)C(=O)Nc2cc(Nc3nc4c(N5CCCC(C(N)=O)C5)nccn4n3)ccc21 (stereo not shown) [E113, 1-[2-(3,3-dimethyl-2-oxo-2,3-dihydro-1H-indol-6-ylamino)-[1,2,4]triazolo[1,5-a]pyrazin-8-yl]-piperidine-3-carboxylic acid amide] | < 100 nM
Cn1ncc2cc(-c3nccn4nc(Nc5ccc6c(c5)NC(=O)C6(C)C)nc34)ccc21 [E114] | < 100 nM
CC1(C)C(=O)Nc2cc(Nc3nc4c(-c5cnc6ccccc6c5)nccn4n3)ccc21 [E115, 3,3-Dimethyl-6-(8-quinolin-3-yl-[1,2,4]triazolo[1,5-a]pyrazin-2-ylamino)-1,3-dihydro-indol-2-one] | < 100 nM
CC1(C)C(=O)Nc2cc(Nc3nc4c(-c5cnc6c(c5)CCCO6)nccn4n3)ccc21 [E116, 6-[8-(3,4-Dihydro-2H-pyrano[2,3-b]pyridin-6-yl)-[1,2,4]triazolo[1,5-a]pyrazin-2-ylamino]-3,3-dimethyl-1,3-dihydro-indol-2-one] | < 100 nM
CC1(C)C(=O)Nc2cc(Nc3nc4c(NCCCNc5nccn6nc(Nc7ccc8c(c7)NC(=O)C8(C)C)nc56)nccn4n3)ccc21 [E117, 6-[[8-[3-[[2-[(3,3-dimethyl-2-oxo-indolin-6-yl)amino]-[1,2,4]triazolo[1,5-a]pyrazin-8-yl]amino]propylamino]-[1,2,4]triazolo[1,5-a]pyrazin-2-yl]amino]-3,3-dimethyl-indolin-2-one] | 3000 to 50000 nM
CC1(C)C(=O)Nc2cc(Nc3nc4c(NS(=O)(=O)c5ccc(N)cc5)nccn4n3)ccc21 [E118, 4-amino-N-[2-(3,3-dimethyl-2-oxo-2,3-dihydro-1H-indol-6-ylamino)-[1,2,4]triazolo[1,5-a]pyrazin-8-yl]benzenesulfonamide] | 3000 to 50000 nM
CN(C)c1ccc2c(c1)N(c1nccn3nc(Nc4ccc5c(c4)NC(=O)C5(C)C)nc13)CC2 [E119, 6-[8-(6-dimethylamino-2,3-dihydro-indol-1-yl)-[1,2,4]triazolo[1,5-a]pyrazin-2-ylamino]-3,3-dimethyl-1,3-dihydro-indol-2-one] | 100 to 300 nM
CC1(C)C(=O)Nc2cc(Nc3nc4c(N5CCC6(CNC(=O)CO6)C5)nccn4n3)ccc21 (stereo not shown) [E120, 2-[2-(3,3-dimethyl-2-oxo-2,3-dihydro-1H-indol-6-ylamino)-[1,2,4]triazolo[1,5-a]pyrazin-8-yl]-6-oxa-2,9-diaza-spiro[4.5]decan-8-one] | 300 to 3000 nM
Cn1cc(-c2nccn3nc(Nc4cc5c(cc4F)C(C)(C)CC(=O)N5)nc23)cn1 [E121, 6-fluoro-4,4-dimethyl-7-[8-(1-methyl-1H-pyrazol-4-yl)-[1,2,4]triazolo[1,5-a]pyrazin-2-ylamino]-3,4-dihydro-1H-quinolin-2-one] | 300 to 3000 nM
CC1(C)C(=O)Nc2cc(Nc3nc4c(NCCCN)nccn4n3)ccc21 [E122, 6-[8-(3-amino-propylamino)-[1,2,4]triazolo[1,5-a]pyrazin-2-ylamino]-3,3-dimethyl-1,3-dihydro-indol-2-one] | 300 to 3000 nM
CC1(C)C(=O)Nc2cc(Nc3nc4c(OC5CCNC5)nccn4n3)ccc21 (stereo not shown) [E123, 3,3-dimethyl-6-[8-(pyrrolidin-3-yloxy)-[1,2,4]triazolo[1,5-a]pyrazin-2-ylamino]-1,3-dihydro-indol-2-one] | 3000 to 50000 nM
CC1(C)C(=O)Nc2cc(Nc3nc4c(N5CCc6ccc(C#N)cc6C5)nccn4n3)ccc21 [E124, 2-[2-(3,3-dimethyl-2-oxo-2,3-dihydro-1H-indol-6-ylamino)-[1,2,4]triazolo[1,5-a]pyrazin-8-yl]-1,2,3,4-tetrahydro-isoquinoline-7-carbonitrile] | < 100 nM
CC(C)(O)c1ccc(Nc2nc3c(N4CCCCCC4)nccn3n2)cc1N [E125, 2-[2-amino-4-(8-azepan-1-yl-[1,2,4]triazolo[1,5-a]pyrazin-2-ylamino)-phenyl]-propan-2-ol] | < 100 nM
CC1(C)OC(C(F)(F)F)Nc2cc(Nc3nc4c(N5CCCCCC5)nccn4n3)ccc21 (stereo not shown) [E126, (8-azepan-1-yl-[1,2,4]triazolo[1,5-a]pyrazin-2-yl)-(4,4-dimethyl-2-trifluoromethyl-1,4-dihydro-2H-benzo[d][1,3]oxazin-7-yl)-amine] | < 100 nM
CC(C)(OC(O)C(F)(F)F)c1ccc(Nc2nc3c(N4CCCCCC4)nccn3n2)cc1N (stereo not shown) [E127, 1-{1-[2-amino-4-(8-azepan-1-yl-[1,2,4]triazolo[1,5-a]pyrazin-2-ylamino)-phenyl]-1-methyl-ethoxy}-2,2,2-trifluoro-ethanol] | 300 to 3000 nM
CC1(C)C(=O)Nc2cc(Nc3nc4c(N5CCc6ccc(C(N)=O)cc6C5)nccn4n3)ccc21 [E128, 2-[2-(3,3-dimethyl-2-oxo-2,3-dihydro-1H-indol-6-ylamino)-[1,2,4]triazolo[1,5-a]pyrazin-8-yl]-1,2,3,4-tetrahydro-isoquinoline-7-carboxylic acid amide] | < 100 nM
CC1(C)C(=O)Nc2cc(Nc3nc4c(NC(=O)c5ccc6c(c5)NCC6)nccn4n3)ccc21 [E129, 2,3-dihydro-1H-indole-6-carboxylic acid [2-(3,3-dimethyl-2-oxo-2,3-dihydro-1H-indol-6-ylamino)-[1,2,4]triazolo[1,5-a]pyrazin-8-yl]-amide] | 300 to 3000 nM
CC1(C)C(=O)Nc2cc(Nc3nc4c(N5CC6(CCNC6)c6cc(Cl)ccc65)nccn4n3)ccc21 (stereo not shown) [E130, 6-[8-(5-Chloro-spiro[indole-3,3′-pyrrolidin]-1-yl)-[1,2,4]triazolo[1,5-a]pyrazin-2-ylamino]-3,3-dimethyl-1,3-dihydro-indol-2-one] | 300 to 3000 nM
